In article PMC12260939, “Radiosynthesis and Evaluation of ^11C‑Labeled Imidazolyl Pyrimidine Derivatives for Positron Emission Tomography Imaging of Glycogen Synthase Kinase‑3” (ACS Pharmacology & Translational Science, 2025):
In brackets after ≈: the same amount, converted by molar mass.

How the values were obtained:
[1] = system: GSK-3β; assay: In vitro autoradiography on rat brain tissue sections; format: binding; details: for blocking of [^3H]13a–13e binding in autoradiography: co-incubation, blocker 3 μM
Description: In the next step, we performed in vitro autoradiography studies on rat brain tissue sections to investigate the binding selectivity and distribution of compounds [^3H]13a–13e (Figure ). […] These findings support the potential of this compound series for further development as GSK-3β-targeted neuroimaging probes.
In vitro autoradiography was conducted on 10 μm thick cry-cut tissue sections of rat tissue that had been thaw-mounted onto microscope slides. The brain sections were incubated in 50 mM Tris-HCl buffer at room temperature and then incubated with [^3H]-ligand for 30 min. The sections were rinsed three times for 10 min each in Tris buffer at 1 °C, followed by a quick rinse in deionized water at 1 °C, and then air-dried at room temperature with a fan. The radiolabeled sections and Amersham plastic tritium standards were then exposed to phosphoimager plates (Fuji BAS-TR2040) overnight. Blocking studies were conducted using a 1000-fold excess of the cold reference compounds, and validated GSK-3β inhibitors AR-A014418 and SB-216763. […] This micromolar concentration is consistent with established methods for GSK-3 radioligand autoradiography blocking experiments.

[2] = system: GSK-3; details: earlier reports, rodents and/or NHPs; cited from earlier work
[3] = target: GSK-3; details: literature value for earlier GSK-3 PET ligand; cited from earlier work
[4] = Solubility; format: physicochemical; details: in dry DMSO at pH = 7.4
Description: (§1) Multiparameter optimization (MPO) and brain/plasma concentration at steady-state (logBB) are widely used to predict BBB permeability. […] A detailed ADME/PK (absorption, distribution, metabolism, excretion and pharmacokinetics) profiling was conducted, and the results are listed in Table . […] These values meet the standards that BBB permeability is considered high if Papp A–B is ≥ 3.0 × 10^–6 cm/s and the efflux ratio is <3.0.

[5] = Unbound fraction in brain (fu brain); format: in vitro ADME
Description: as §1

[6] = target: human recombinant GSK3β (Homo sapiens, UniProt P49841); assay: GSK3β scintillation proximity assay (SPA), inhibition of kinase activity; format: biochemical; details: for Ki: GSK-3β, calculated via the Cheng-Prusoff equation; for IC50: SPA, 1 μM ATP
Description: The inhibition of GSK3β activity is assessed using a scintillation proximity assay (SPA) in a 96-well microtiter plate format. The assay utilizes purified human recombinant GSK3β enzyme (∼1 nM active), [γ-^33P]-ATP (0.04 μCi), and a biotinylated peptide substrate (Biotin-[…](PO3H2)-PQL) at a final concentration of 2 μM. Reactions are carried out in an assay buffer containing MOPS, EDTA, β-mercaptoethanol, Brij 35, glycerol, and BSA, and preincubated for 10–15 min at room temperature. Inhibitor testing is conducted in duplicate using 10 different concentrations. The kinase reaction is initiated by adding ATP (1 μM final) in the presence of 50 mM Mg(Ac)2. After a 15 min incubation at room temperature, the reaction is terminated by adding a solution (25 μL) containing 5 mM EDTA, 50 μM ATP, 0.1% Triton X-100, and 10 mg/mL streptavidin-coated SPA beads, followed by the addition of distilled water (50 μL). After a 6-h incubation, bound radioactivity is measured using a MicroBeta Trilux liquid scintillation counter (1450 MicroBeta Trilux, Wallac). Data are analyzed using nonlinear regression with variable slope (GraphPad Prism or Excel Fit), and results are reported as Ki values calculated via the Cheng-Prusoff equation.

[7] = target: GSK-3; assay: Radioligand saturation binding assay with tritiated ligands in hippocampal membranes; parameters: species or system Sprague–Dawley rat; details: tritiated ligand, hippocampus of SD rat brains
Description: The pharmacology and physicochemical properties of compounds 13a–13e are depicted in Table . To evaluate binding affinities, saturation binding assays using tritiated ligands [^3H]13a, [^3H]13c, [^3H]13d, [^3H]13e (Scheme S1) were performed using the hippocampal tissue of Sprague–Dawley (SD) rat brains. As depicted in Table A, total binding (TB), nonspecific binding (NSB), and specific binding (SB) of the respective tritiated ligands were measured with increasing concentrations of the radioligands. The dissociation constant (Kd) and capacity (B max) of each radioligand were calculated to confirm their binding affinity.
For membrane preparation, hippocampal tissue from adult rats (Sprague–Dawley) was dissected out, weighed, and frozen in 0.32 M sucrose at −70 °C. On the experiment day, the tissue was thawed, homogenized in 50 mM Tris, 5 mM EDTA (pH 7.4) and then centrifuged at 48 000 xg for 15 min at +4 °C. The pellet was diluted in binding buffer (50 mM Tris, 4 mM MgCl2, 1 mM EDTA pH 7.4) to a final concentration of 2.5 mg w.w./mL. Saturation binding experiments were performed in duplicate, with each tube containing 1 mg w.w. in 0.5 mL binding buffer and 0.1 – 17 nM (11–12 concentrations) of radioligand. Nonspecific binding was measured by adding 10 μM AR-A014418. The assays were incubated for 2–3 h at room temperature and terminated by quick filtration using Whatman GF/B filters pretreated with 0.3% polyethylenimine on a Brandel cell harvester. Radioactivity was measured with a Packard Tri-Carb 2900TR liquid scintillation counter, and data were processed by nonlinear regression analyses using PRISM 4.03.

[8] = Apparent permeability (Papp A-B) and efflux ratio; format: in vitro ADME; details: for efflux ratio: not told, Papp B–A/Papp A–B
Description: as §1

[9] = target: T1, CYP1A2 (Homo sapiens, UniProt P05177); assay: CYP1A2 inhibition; format: in vitro ADME
T1 sequence (P05177 1-516): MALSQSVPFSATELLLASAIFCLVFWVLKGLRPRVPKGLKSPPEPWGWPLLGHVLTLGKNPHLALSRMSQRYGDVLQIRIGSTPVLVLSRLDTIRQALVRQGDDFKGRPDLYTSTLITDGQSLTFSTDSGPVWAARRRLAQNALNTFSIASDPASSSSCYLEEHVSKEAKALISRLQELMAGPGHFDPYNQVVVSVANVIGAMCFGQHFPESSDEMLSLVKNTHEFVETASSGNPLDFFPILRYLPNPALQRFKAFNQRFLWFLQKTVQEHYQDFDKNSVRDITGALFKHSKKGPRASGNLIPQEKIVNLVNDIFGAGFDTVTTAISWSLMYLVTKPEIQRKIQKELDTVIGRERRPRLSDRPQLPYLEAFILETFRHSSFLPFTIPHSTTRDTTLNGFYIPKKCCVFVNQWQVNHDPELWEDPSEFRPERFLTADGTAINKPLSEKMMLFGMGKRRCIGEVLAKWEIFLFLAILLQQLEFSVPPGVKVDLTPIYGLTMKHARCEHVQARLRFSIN
Description: (§2) The inhibitory properties of 13a–13e on four cytochrome P450 isoforms (CYP1A2, CYP2C9, CYP2D6 and CYP3A4) were greater than 2 μM.

[10] = Pharmacokinetics: half-life and bioavailability; details: in vivo; for half-life: read-out: mean t 1/2 (converted)
[11] = Protein binding (% free); format: in vitro ADME; details: read-out: mean Prot binding (% free)
[12] = target: CYP2C9 (Homo sapiens, UniProt P11712); assay: CYP2C9 inhibition; format: in vitro ADME
Description: as §2

[13] = Intrinsic clearance (CLint); format: in vitro ADME; details: cells (cell type not named); read-out: median CLint
[14] = target: CYP2D6 (Homo sapiens, UniProt P10635); assay: CYP2D6 inhibition; format: in vitro ADME
Description: as §2

[15] = target: CYP3A4 (Homo sapiens, UniProt P08684); assay: CYP3A4 inhibition; format: in vitro ADME
Description: as §2

[16] = target: hERG channel (Homo sapiens, UniProt Q12809); assay: hERG channel inhibition; details: human
Sequence of hERG channel (Q12809 whole entry): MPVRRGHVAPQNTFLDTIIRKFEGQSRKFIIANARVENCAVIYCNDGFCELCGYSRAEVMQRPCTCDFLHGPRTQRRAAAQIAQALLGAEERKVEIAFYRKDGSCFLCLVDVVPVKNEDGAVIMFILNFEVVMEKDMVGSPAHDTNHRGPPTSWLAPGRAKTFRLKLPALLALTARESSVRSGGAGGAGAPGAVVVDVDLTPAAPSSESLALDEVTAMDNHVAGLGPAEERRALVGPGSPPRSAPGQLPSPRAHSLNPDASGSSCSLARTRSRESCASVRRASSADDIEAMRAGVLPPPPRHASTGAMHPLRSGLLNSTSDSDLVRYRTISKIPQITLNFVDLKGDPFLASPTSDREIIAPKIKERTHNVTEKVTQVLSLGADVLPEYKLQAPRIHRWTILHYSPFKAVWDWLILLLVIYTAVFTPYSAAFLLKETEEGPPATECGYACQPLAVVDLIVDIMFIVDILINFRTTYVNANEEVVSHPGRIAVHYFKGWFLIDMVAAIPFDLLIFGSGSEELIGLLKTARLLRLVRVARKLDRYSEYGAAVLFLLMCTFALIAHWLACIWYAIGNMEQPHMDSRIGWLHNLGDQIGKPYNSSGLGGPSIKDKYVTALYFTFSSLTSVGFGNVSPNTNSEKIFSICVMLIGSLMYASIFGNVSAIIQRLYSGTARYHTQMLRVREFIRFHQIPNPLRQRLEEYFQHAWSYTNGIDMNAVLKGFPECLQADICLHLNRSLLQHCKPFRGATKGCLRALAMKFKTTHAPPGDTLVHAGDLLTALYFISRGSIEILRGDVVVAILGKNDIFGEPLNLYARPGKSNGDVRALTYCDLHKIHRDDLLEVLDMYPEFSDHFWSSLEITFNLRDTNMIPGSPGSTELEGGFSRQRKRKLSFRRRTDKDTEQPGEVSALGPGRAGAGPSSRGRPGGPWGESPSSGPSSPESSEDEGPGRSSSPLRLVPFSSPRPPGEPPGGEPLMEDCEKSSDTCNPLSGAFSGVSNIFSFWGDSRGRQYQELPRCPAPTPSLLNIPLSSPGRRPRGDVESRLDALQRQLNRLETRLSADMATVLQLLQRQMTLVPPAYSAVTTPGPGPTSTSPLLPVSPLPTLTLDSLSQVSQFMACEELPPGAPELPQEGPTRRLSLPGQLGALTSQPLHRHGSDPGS

Sequence of CYP3A4 (P08684 whole entry, species assumed): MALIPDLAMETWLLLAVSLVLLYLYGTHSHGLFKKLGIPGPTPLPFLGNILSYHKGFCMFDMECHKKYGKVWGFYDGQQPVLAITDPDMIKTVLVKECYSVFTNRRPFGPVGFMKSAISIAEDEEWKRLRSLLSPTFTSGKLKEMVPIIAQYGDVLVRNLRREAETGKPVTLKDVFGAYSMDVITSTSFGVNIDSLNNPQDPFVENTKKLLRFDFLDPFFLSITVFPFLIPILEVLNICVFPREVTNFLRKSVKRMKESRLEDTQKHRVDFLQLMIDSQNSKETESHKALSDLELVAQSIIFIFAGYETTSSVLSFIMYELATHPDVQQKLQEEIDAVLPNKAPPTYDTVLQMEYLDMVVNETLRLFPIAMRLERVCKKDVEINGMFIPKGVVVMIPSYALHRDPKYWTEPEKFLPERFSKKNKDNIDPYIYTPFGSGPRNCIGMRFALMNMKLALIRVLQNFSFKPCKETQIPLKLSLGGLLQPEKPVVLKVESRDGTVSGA
Sequence of CYP2D6 (P10635 whole entry, species assumed): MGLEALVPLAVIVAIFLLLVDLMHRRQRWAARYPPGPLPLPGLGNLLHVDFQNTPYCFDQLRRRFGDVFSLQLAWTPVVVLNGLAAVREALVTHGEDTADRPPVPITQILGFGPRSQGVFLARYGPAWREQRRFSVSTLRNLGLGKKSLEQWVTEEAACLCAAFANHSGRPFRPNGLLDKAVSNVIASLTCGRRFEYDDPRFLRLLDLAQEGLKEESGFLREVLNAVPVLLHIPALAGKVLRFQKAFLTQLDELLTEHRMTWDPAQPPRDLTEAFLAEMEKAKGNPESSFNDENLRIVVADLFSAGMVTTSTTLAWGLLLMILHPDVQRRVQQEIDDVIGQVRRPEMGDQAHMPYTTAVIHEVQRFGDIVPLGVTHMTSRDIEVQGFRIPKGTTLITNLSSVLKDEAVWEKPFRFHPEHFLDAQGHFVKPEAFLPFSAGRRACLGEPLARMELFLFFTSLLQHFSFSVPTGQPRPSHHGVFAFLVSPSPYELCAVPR
Sequence of CYP2C9 (P11712 whole entry, species assumed): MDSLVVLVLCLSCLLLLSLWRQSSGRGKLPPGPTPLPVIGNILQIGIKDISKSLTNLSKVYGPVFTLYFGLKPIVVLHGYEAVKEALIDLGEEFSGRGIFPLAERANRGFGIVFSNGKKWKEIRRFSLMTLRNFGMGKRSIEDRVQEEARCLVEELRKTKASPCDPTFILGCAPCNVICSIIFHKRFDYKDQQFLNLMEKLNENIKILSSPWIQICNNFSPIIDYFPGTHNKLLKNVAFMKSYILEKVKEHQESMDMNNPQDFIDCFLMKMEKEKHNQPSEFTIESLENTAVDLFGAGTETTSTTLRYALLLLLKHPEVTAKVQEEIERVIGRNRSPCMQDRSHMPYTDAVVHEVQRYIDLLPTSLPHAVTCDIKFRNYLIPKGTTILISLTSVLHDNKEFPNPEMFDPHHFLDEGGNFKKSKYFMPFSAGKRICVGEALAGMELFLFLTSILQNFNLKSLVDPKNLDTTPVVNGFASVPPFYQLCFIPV
Sequence of human recombinant GSK3β (P49841 whole entry): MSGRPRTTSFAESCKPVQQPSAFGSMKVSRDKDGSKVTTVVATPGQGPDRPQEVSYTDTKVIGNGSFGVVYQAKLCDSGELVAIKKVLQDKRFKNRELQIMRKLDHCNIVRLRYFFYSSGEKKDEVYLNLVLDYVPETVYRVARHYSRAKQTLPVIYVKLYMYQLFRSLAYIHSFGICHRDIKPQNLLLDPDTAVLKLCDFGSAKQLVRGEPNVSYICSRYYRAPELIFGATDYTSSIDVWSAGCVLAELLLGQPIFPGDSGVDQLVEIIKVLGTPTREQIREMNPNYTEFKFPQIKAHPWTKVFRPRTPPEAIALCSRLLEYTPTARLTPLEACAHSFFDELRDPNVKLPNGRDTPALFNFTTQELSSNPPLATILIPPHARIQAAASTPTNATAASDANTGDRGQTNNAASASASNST

Cn1cc(C2=C(c3ccc(Cl)cc3Cl)C(=O)NC2=O)c2ccccc21 [[^11C]6, reference compound]
blocking of [^3H]13a–13e binding in autoradiography [1]: significantly reduced the radioactive signal in all the brain regions
brain uptake / BBB penetration in PET studies [2]: first GSK-3 radioligand reported to penetrate the BBB in rodents and NHPs

[11CH3]Oc1ccc(CNC(=O)Nc2ncc([N+](=O)[O-])s2)cc1 [[^11C]1, N-(4-methoxybenzyl)-N′-(5-nitro-1,3-thiazol-2-yl)urea]
blocking of [^3H]13a–13e binding in autoradiography [1]: significantly reduced the radioactive signal in all the brain regions

Cc1nnc(-c2ccc3occ(-c4ccc(S([11CH3])(=O)=O)cc4)c3c2)o1 [[^11C]5]
IC50 [3]: 42 nM

Cc1nnc(-c2ccc3occ(-c4ccc([S+]([11CH3])[O-])cc4)c3c2)o1 (centres unmarked) [[^11C]4]
IC50 [3]: 35 nM

Cc1cc(Nc2ncc(F)c(-c3cnc(C)n3C3CCOCC3)n2)ccc1C(=O)N(C)C [13c]
solubility [4]: > 400 µM
fraction unbound [5]: 0.19
Ki [6]: 4.48 nM
IC50 [6]: 5.96 nM
Kd [7]: 2.74 nM
P app A-B [8]: 16.2 × 10^–6 cm/s
efflux ratio [8]: 2.1

Cc1nnc(-c2ccc3occ(-c4ccc(S[11CH3])cc4)c3c2)o1 [[^11C]3]
IC50 [3]: 66 nM

Cc1ncc(-c2nc(Nc3ccc(C(=O)N(C)C)c(Cl)c3)ncc2F)n1C1CCOCC1 [13b]
solubility [4]: 155 µM (≈ 71.1 µg/mL)
IC50 [9]: > 2000 nM
fraction unbound [5]: 0.13
bioavailability [10]: 39.8%
half-life [10]: 2.32 h
fraction unbound [11]: 0.056
Ki [6]: 3.01 nM
IC50 [6]: 4.01 nM
IC50 [12]: > 2000 nM
hepatocyte CLint [13]: 17.5 µL/min/1e6 cells
IC50 [14]: > 2000 nM
IC50 [15]: > 2000 nM
IC50 [16]: 18800 nM
P app A-B [8]: 22.7 × 10^–6 cm/s
efflux ratio [8]: 1.2

CCn1cc(C2=C(c3cccc(OCC[18F])c3)C(=O)NC2=O)c2cc(F)ccc21 [[^18F]7]
IC50 [3]: 1.7 nM

[11CH3]N1CCN(S(=O)(=O)c2ccc(-c3cnc(N)c(C(=O)Nc4cccnc4)n3)cc2)CC1 [[^11C]2]
brain uptake / BBB penetration in PET studies [2]: poor brain uptake in rodents and nonhuman primates

[11CH3]Oc1ccc(-c2ocnc2C(=O)NCCCn2cncn2)cc1Cl [[^11C]8]
IC50 [3]: 2.1 nM
brain uptake / BBB penetration in PET studies [2]: promising brain uptake and binding specificity in NHPs

COCCN(C)C(=O)c1ccc(Nc2ncc(F)c(-c3cnc(C)n3C3CCOCC3)n2)cc1C [13d]
radioactive accumulation / distribution in autoradiography ([1]; tritiated ligand, rat brain sections, baseline): lowest level of radioactive accumulation
IC50 [9]: > 2000 nM
fraction unbound [5]: 0.26
bioavailability [10]: 32.9%
half-life [10]: 3.65 h
fraction unbound [11]: 0.11
Ki [6]: 4.95 nM
IC50 [6]: 6.61 nM
IC50 [12]: > 2000 nM
hepatocyte CLint [13]: 15.4 µL/min/1e6 cells
Kd [7]: 6.46 nM
IC50 [14]: > 2000 nM
IC50 [15]: > 2000 nM
IC50 [16]: > 33000 nM
P app A-B [8]: 21.9 × 10^–6 cm/s
efflux ratio [8]: 0.7

Cc1ncc(-c2nc(Nc3ccc(C(=O)N4CCCCC4)c(Cl)c3)ncc2F)n1C1CCOCC1 [13a]
solubility [4]: 234 µM (≈ 117 µg/mL)
IC50 [9]: > 2000 nM
fraction unbound [5]: 0.036
Ki [6]: 2.49 nM
IC50 [6]: 3.31 nM
IC50 [12]: > 2000 nM
hepatocyte CLint [13]: 34.2 µL/min/1e6 cells
Kd [7]: 1.09 nM
IC50 [14]: > 2000 nM
IC50 [15]: > 2000 nM
IC50 [16]: 4520 nM

[11CH3]Oc1ccc2c(NC(=O)Nc3cccc(C(F)(F)F)c3)ccnc2c1 [[^11C]9]
Ki [3]: 0.6 nM
